# Activity calls are given as the source filed them. The rule behind the calls is not given here.
# Molecular target: not listed separately
# Experiment: (§1) Inhibition of Trypanosoma cruzi dihydroorotate dehydrogenase by isothermal titration calorimetry
# Conditions: read-out: Ki(app)
row,Compound,Ki
1,O=C(O)c1cc(=O)[nH]c(=O)[nH]1 [OROTIC ACID],72.2 µM
2,CN(C)Cc1c(C(=O)O)[nH]c(=O)[nH]c1=O,300 µM
3,O=C(O)c1[nH]c(=O)[nH]c(=O)c1F,19.3 µM
4,Nc1c(C(=O)O)[nH]c(=O)[nH]c1=O,94.8 µM

# Continued, values first:
row,Ki,Compound
1,21.7 µM,O=C(O)c1nc(=O)[nH]c(=O)[nH]1 [OTERACIL]
2,139 µM,O=C(O)c1[nH]c(=O)[nH]c(=O)c1[N+](=O)[O-]

# System: Trypanosoma cruzi
# Experiment: as §1
# Conditions: not given
row,Compound,Ki(app)
1,CCCCOC(=O)c1cc(O)nc(O)n1,inactive
2,Oc1nc(O)c2nc(O)[nH]c2n1,inactive

# The next lines start with the values.
row,Ki(app),Compound
1,inactive,O=C1OCc2c1[nH]c(=O)[nH]c2=O
2,inactive,O=c1[nH]c(=O)c2nn[nH]c2[nH]1

# Molecular target: not listed separately
# Experiment: Inhibition of Leishmania major dihydroorotate dehydrogenase by isothermal titration calorimetry
# Conditions: read-out: Ki(app)
row,Compound,Ki
1,O=C(O)c1[nH]c(=O)[nH]c(=O)c1[N+](=O)[O-],213 µM
2,Nc1c(C(=O)O)[nH]c(=O)[nH]c1=O,82.8 µM

# Source: ChEMBL document CHEMBL1629516, “Novel insights for dihydroorotate dehydrogenase class 1A inhibitors discovery” (Eur J Med Chem, 2010)
